Patent US20100144853A1, “NOVEL COMBINED ADMINISTRATION” (priority 2008, published 2010)

Key:
Type in all cases: in vitro ADME
Lipase from Hog Pancreas = assay: Stability of COMPOUND A with Lipase, Procedure A (premix of Lipase and COMPOUND B, then COMPOUND A); conditions: 10 min, 0.55 mg/mL (11 U/mL) Lipase
Experimental: 240 mg Lipase (Lipase from Hog Pancreas, 20.6 U/mg Lipase, CAS No. 9001-62-1, Fluka, Art. No. 62300) were weighed into a vial and dissolved by stirring in 10 mL phosphate buffered saline solution pH 6.5. Any undissolved material was removed by centrifugation during 5 min at 5000 rpm. The supernatant was used for the experiments and diluted with PBS to obtain the Lipase at the final concentration of 0.55 mg/mL.
Procedure A (Premix of Lipase and COMPOUND B, Followed by Addition of Compound A):
1600 μL of Lipase in phosphate buffered saline solution (from stock C) to obtain a final enzyme concentration of 0.55 mg/mL) were mixed with 200 μL of COMPOUND B (stock B) and pre-incubated during 5 min at 37° C. At time zero 200 μL of drug solution (stock A) were added. The mixture was incubated at 37° C. After 10 min, the reaction was stopped by dilution of one part of the mixture with 3 parts of isopropanol.

[1] = Stability of COMPOUND A in human intestinal fluids, Procedure E (suspension, excess separated by centrifugation), fasted; conditions: HIF-fasted
Experimental: Fasted Intestinal Fluids: the fluids from 4 different subjects were collected with a naso-jejunal tube after fasting overnight and pooled.
(§1) Procedure E (COMPOUND A and COMPOUND B in Suspension, Excess Compound Separated by Centrifugation):
(§2) Stock J=COMPOUND B suspension (2 mg/mL)
(§3) 100 μL of FeSSIF concentrate and 900 μL of pro-FeSSIF pH6.5 were added to 4 mg commercially available Orlistat formulation (Xenical®) containing 2 mg of lipase inhibitor 1-(3-hexyl-4-oxo-oxetan-2-yl)tridecan-2-yl 2-formyl-amino-4-methyl-pentanoate (COMPOUND B) in a vial and the formulation was dispersed by gently stirring during 15 min to obtain a fine homogenous suspension.
(§4) 500 μL of freshly thawed intestinal fluids (fasted and stimulated state) were added to 1 mg of COMPOUND A in a 1 mL glass vial immediately followed by the addition of either 0, 10 or 20 μL of COMPOUND B suspension (stock J) corresponding to 0, 40 or 80 μg/mL of COMPOUND B. The amount of COMPOUND B was 0, 2% or 4% COMPOUND B relative to COMPOUND A. The mixture was incubated at 37° C. with gentle stirring. Samples of 90 μL were removed as function of time and centrifuged at 13′000 rpm (about 12′000×g) for 5 min. 50 μL of the supernatant was diluted with 150 μL isopropanol, centrifuged at 5′000 rpm for 5 min and the clear supernatant was analyzed by HPLC.

[2] = Stability of COMPOUND A in human intestinal fluids, Procedure E (suspension, excess separated by centrifugation), stimulated; conditions: HIF-stimulated
Experimental: (§5) Stimulated Intestinal Fluids: the fluids from 3 different subjects were collected after fasting overnight with a nasojejunal tube and pooled. For the stimulation, twenty minutes before the beginning of the collection, volunteers were provided with chewing-gums and were asked to chew over a 15 minutes period, maintaining the taste by replacing the sticks of gum approximately every 2 minutes.
as §1, §2, §3, §4

[3] = Stability of COMPOUND A in human intestinal fluids, Procedure F (suspension, no separation of excess), second table; conditions: fasted HIF
Experimental: as §5
Procedure F (COMPOUND A and COMPOUND B in suspension, the degradation immediately stopped without separation of excess compound): Stock K=COMPOUND B suspension (0.5 mg/mL)
Dilute 1 part of COMPOUND B suspension (stock J) with 3 parts of FeSSIF pH6.5 solution.
500 μL of freshly thawed intestinal fluids (fasted and stimulated state) were added to 1.2 mg of COMPOUND A in a 1 mL glass vial. The suspended compound was stirred for 15 min at 37° C. to obtain wetting and a homogenous suspension. In parallel, 4 glass vials were prepared with 20 μL of a COMPOUND B suspension at different concentrations. These concentrations were obtained by mixing FeSSIF pH6.5 and COMPOUND B suspension (stock K) in different ratios, respectively 1:[…], 1:1, 0:1 to obtain 0, 1, 2 and 4% related to COMPOUND A. At time zero, 100 μL of COMPOUND A suspension preincubated at 37° C. were added to the 20 μL COMPOUND B suspension. The mixture was incubated at 37° C. with gentle stirring. After 15 min and 60 min, the reaction was stopped by mixing a 50 μL sample with 150 μL isopropanol and centrifuged at 5′000 rpm during 5 min. The clear supernatant was analyzed for the hydrolysis product and its oxidized form by HPLC.

[4] = with 40 μg/mL of COMPOUND B, 15 min
[5] = with 40 μg/mL of COMPOUND B, 30 min
[6] = with 40 μg/mL of COMPOUND B, 1 h
[7] = with 40 μg/mL of COMPOUND B, 2 h
[8] = with 40 μg/mL of COMPOUND B, 4 h
[9] = with 80 μg/mL of COMPOUND B, 15 min
[10] = with 80 μg/mL of COMPOUND B, 30 min
[11] = with 80 μg/mL of COMPOUND B, 1 h
[12] = with 80 μg/mL of COMPOUND B, 2 h
[13] = with 80 μg/mL of COMPOUND B, 4 h

In the case of `CCC(CC)CC1(C(=O)Nc2ccccc2SC(=O)C(C)C)CCCCC1` [COMPOUND A, thioisobutyric acid S-(2-{[1-(2-ethyl-butyl)-cyclohexanecarbonyl]-amino}-phenyl)ester], the “Concentration of COMPOUND A” value (Lipase from Hog Pancreas; COMPOUND B 0 μg/mL) is reported as 14.7 µg/mL, the “Concentration of COMPOUND A” value (Lipase from Hog Pancreas; COMPOUND B 50 μg/mL) is reported as 46.4 µg/mL and the “Concentration of COMPOUND A” value (Lipase from Hog Pancreas; COMPOUND B 100 μg/mL) is reported as 48.2 µg/mL. For the same compound, the “Concentration of COMPOUND A” value [1, 4] was 1.12 µg/mL, the “Concentration of COMPOUND A” value [1, 5] was 11.75 µg/mL and the “Concentration of COMPOUND A” value [1, 6] was 111.05 µg/mL. The “Concentration of COMPOUND A” value [1, 7] was 217.35 µg/mL, the “Concentration of COMPOUND A” value [1, 8] was 281.66 µg/mL and the “Concentration of COMPOUND A” value [1, 9] was 5.62 µg/mL. For the same compound, the “Concentration of COMPOUND A” value [1, 10] was 16.36 µg/mL, the “Concentration of COMPOUND A” value [1, 11] was 89.60 µg/mL and the “Concentration of COMPOUND A” value [1, 12] was 230.34 µg/mL. The “Concentration of COMPOUND A” value [1, 13] was 336.00 µg/mL, the “Concentration of COMPOUND A” value ([1]; without COMPOUND B, 15 min) was 1.62 µg/mL and the “Concentration of COMPOUND A” value ([1]; without COMPOUND B, 30 min) was 1.86 µg/mL. For the same compound, the “Concentration of COMPOUND A” value ([1]; without COMPOUND B, 1 h) was 0.49 µg/mL, the “Concentration of COMPOUND A” value ([1]; without COMPOUND B, 2 h) was 0.49 µg/mL and the “Concentration of COMPOUND A” value ([1]; without COMPOUND B, 4 h) was 0.49 µg/mL. The “Concentration of COMPOUND A” value [2, 4] was 0.74 µg/mL, the “Concentration of COMPOUND A” value [2, 5] was 0.55 µg/mL and the “Concentration of COMPOUND A” value [2, 6] was 10.53 µg/mL. The “Concentration of COMPOUND A” value [2, 7] was 32.71 µg/mL, the “Concentration of COMPOUND A” value [2, 8] was 221.31 µg/mL and the “Concentration of COMPOUND A” value [2, 9] was 1.00 µg/mL. The “Concentration of COMPOUND A” value [2, 10] was 11.80 µg/mL, the “Concentration of COMPOUND A” value [2, 11] was 64.63 µg/mL and the “Concentration of COMPOUND A” value [2, 12] was 131.64 µg/mL. For the same compound, the “Concentration of COMPOUND A” value [2, 13] was 171.25 µg/mL, the “Concentration of COMPOUND A” value ([2]; without COMPOUND B, 15 min) was 3.09 µg/mL and the “Concentration of COMPOUND A” value ([2]; without COMPOUND B, 30 min) was 0.52 µg/mL. The “Concentration of COMPOUND A” value ([2]; without COMPOUND B, 1 h) was 0.62 µg/mL, the “Concentration of COMPOUND A” value ([2]; without COMPOUND B, 2 h) was 0.82 µg/mL and the “Concentration of COMPOUND A” value ([2]; without COMPOUND B, 4 h) was 1.31 µg/mL. The “Concentration of COMPOUND A” value ([3]; COMPOUND B 0 μg/mL (0%), T = 15 min) was 1569.58 µg/mL, the “Concentration of COMPOUND A” value ([3]; COMPOUND B 0 μg/mL (0%), T = 60 min) was 400.63 µg/mL and the “Concentration of COMPOUND A” value ([3]; COMPOUND B 20 μg/mL (1%), T = 15 min) was 2034.38 µg/mL. The “Concentration of COMPOUND A” value ([3]; COMPOUND B 20 μg/mL (1%), T = 60 min) was 1503.21 µg/mL, the “Concentration of COMPOUND A” value ([3]; COMPOUND B 40 μg/mL (2%), T = 15 min) was 2163.01 µg/mL and the “Concentration of COMPOUND A” value ([3]; COMPOUND B 40 μg/mL (2%), T = 60 min) was 1515.41 µg/mL. The “Concentration of COMPOUND A” value ([3]; COMPOUND B 80 μg/mL (4%), T = 15 min) was 1945.50 µg/mL and the “Concentration of COMPOUND A” value ([3]; COMPOUND B 80 μg/mL (4%), T = 60 min) was 1449.03 µg/mL.
